Publication PMC3690672 (European journal of nuclear medicine and molecular imaging, 2009)
Where “and” joins values, the source holds several entries; their conditions need not be identical. Identical values can stand only once. Counter-ions that a name gives are not always drawn. Like-named read-outs stand apart in the source and are kept apart here.

Key:
[1] = tested on: multidrug resistance-associated proteins (MRPs), such as MRP1; details: cited from earlier work
[2] = target: T1, P-glycoprotein (P-gp) at the blood-brain barrier (Rattus norvegicus, UniProt Q6PSM0); details: for DV (Logan) of VPM / DV of VPM (2T4K model) / K1 of VPM (2T4K model) / k2 of VPM (2T4K model) / k3 of VPM (2T4K model) / k4 of VPM (2T4K model): whole brain, PET 120 min after, mean±SD
[3] = target: T1, P-glycoprotein (P-gp) at the blood-brain barrier; experiment: in vivo
[4] = Tariquidar or elacridar concentrations in plasma and brain by LC/MS; type: in vivo; details: rat, 5 mg/kg; for concentration at 180 min: intravenous
[5] = tested on: P-glycoprotein (P-gp) at the blood-brain barrier; type: in vivo, rat; details: tariquidar 15 mg/kg or elacridar 5 mg/kg at 60 min after radiotracer injection
[6] = Hill fit of whole-brain DV vs inhibitor dose

T1 sequence (Q6PSM0 1-1272): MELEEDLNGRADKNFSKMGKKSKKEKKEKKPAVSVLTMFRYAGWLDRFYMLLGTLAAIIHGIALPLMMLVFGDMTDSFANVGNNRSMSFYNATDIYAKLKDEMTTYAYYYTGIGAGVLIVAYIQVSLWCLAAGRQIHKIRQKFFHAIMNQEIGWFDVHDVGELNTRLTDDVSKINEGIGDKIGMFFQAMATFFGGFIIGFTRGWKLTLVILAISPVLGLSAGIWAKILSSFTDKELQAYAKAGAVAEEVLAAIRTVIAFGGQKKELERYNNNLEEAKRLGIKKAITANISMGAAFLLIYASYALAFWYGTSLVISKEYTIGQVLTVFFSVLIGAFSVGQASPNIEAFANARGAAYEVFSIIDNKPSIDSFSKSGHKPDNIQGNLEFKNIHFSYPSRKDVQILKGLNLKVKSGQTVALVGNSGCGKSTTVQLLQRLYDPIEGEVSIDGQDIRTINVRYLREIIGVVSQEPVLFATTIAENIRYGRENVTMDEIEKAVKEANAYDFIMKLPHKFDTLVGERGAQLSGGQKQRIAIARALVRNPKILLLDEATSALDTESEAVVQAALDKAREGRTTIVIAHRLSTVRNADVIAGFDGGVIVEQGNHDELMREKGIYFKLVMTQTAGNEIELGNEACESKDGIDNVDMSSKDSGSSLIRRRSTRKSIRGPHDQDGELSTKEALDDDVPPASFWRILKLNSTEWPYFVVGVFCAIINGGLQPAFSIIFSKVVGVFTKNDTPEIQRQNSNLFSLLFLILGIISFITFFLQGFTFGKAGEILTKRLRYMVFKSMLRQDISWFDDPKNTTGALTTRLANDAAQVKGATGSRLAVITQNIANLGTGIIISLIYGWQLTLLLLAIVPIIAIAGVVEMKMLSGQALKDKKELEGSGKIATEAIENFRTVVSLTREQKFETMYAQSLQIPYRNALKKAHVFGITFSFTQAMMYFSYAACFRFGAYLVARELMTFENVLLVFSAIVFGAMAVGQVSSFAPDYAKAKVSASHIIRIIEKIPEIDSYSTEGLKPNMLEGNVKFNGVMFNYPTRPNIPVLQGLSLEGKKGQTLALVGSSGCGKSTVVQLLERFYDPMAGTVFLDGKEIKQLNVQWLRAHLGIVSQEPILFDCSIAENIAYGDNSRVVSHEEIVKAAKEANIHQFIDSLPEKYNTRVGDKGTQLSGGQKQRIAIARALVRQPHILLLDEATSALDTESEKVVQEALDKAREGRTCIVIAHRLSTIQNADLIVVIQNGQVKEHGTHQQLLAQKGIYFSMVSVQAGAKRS

SMILES: COc1cc2c(cc1OC)CN(CCc1ccc(NC(=O)c3cccc4c(=O)c5cccc(OC)c5[nH]c34)cc1)CC2 [elacridar, elacridar hydrochloride]
- Inhibition of MRPs, such as MRP1 [1]: do not inhibit
- DVmax (maximum effect) [2, 6]: 11.4±0.7 ml·ml^−1
- Hill factor n [2, 6]: 5.2±2.8
- Maximum increase in VPM brain distribution (DV) over baseline ([2]; at maximum effective doses, rat brain): up to 11 fold
- Whole-brain DV increase (factor) as compared to baseline scans ([2]; inhibitor 0.3 mg/kg): 1.0±0.6
- Whole-brain DV increase (factor) as compared to baseline scans ([2]; inhibitor 1 mg/kg): 3.5±1.5
- Whole-brain DV increase (factor) as compared to baseline scans ([2]; inhibitor 2 mg/kg): 9.4±1.5
- Whole-brain DV increase (factor) as compared to baseline scans ([2]; inhibitor 5 mg/kg): 8.9±1.4
- Whole-brain DV increase (factor) as compared to baseline scans ([2]; inhibitor 7.5 mg/kg): 11.3±0.2
- DV (Logan) of VPM ([2]; inhibitor 0.3 mg/kg i.v.): 1.22±0.51 (2.9) ml·ml^−1
- DV of VPM (2T4K model) ([2]; inhibitor 0.3 mg/kg i.v.): 1.28±0.54 (3.1) ml·ml^−1
- K1 of VPM (2T4K model) ([2]; inhibitor 0.3 mg/kg i.v.): 0.13±0.10 (16.5) ml·ml^−1·min^−1
- k2 of VPM (2T4K model) ([2]; inhibitor 0.3 mg/kg i.v.): 0.29±0.06 (36.5) min^−1
- k3 of VPM (2T4K model) ([2]; inhibitor 0.3 mg/kg i.v.): 0.14±0.02 (41.4) min^−1
- k4 of VPM (2T4K model) ([2]; inhibitor 0.3 mg/kg i.v.): 0.07±0.01 (16.7) min^−1
- DV (Logan) of VPM ([2]; inhibitor 1 mg/kg i.v.): 4.47±1.51 (0.9) ml·ml^−1
- DV of VPM (2T4K model) ([2]; inhibitor 1 mg/kg i.v.): 4.49±1.51 (2.9) ml·ml^−1
- K1 of VPM (2T4K model) ([2]; inhibitor 1 mg/kg i.v.): 0.57±0.19 (18.1) ml·ml^−1·min^−1
- k2 of VPM (2T4K model) ([2]; inhibitor 1 mg/kg i.v.): 0.33±0.10 (78.9) min^−1
- k3 of VPM (2T4K model) ([2]; inhibitor 1 mg/kg i.v.): 0.29±0.11 (93.2) min^−1
- k4 of VPM (2T4K model) ([2]; inhibitor 1 mg/kg i.v.): 0.19±0.06 (33.3) min^−1
- DV (Logan) of VPM ([2]; inhibitor 2 mg/kg i.v.): 11.72±1.47 (0.6) ml·ml^−1
- DV of VPM (2T4K model) ([2]; inhibitor 2 mg/kg i.v.): 12.00±1.49 (2.4) ml·ml^−1
- K1 of VPM (2T4K model) ([2]; inhibitor 2 mg/kg i.v.): 0.92±0.16 (7.2) ml·ml^−1·min^−1
- k2 of VPM (2T4K model) ([2]; inhibitor 2 mg/kg i.v.): 0.18±0.06 (42.2) min^−1
- k3 of VPM (2T4K model) ([2]; inhibitor 2 mg/kg i.v.): 0.29±0.09 (68.5) min^−1
- k4 of VPM (2T4K model) ([2]; inhibitor 2 mg/kg i.v.): 0.22±0.03 (21.1) min^−1
- DV (Logan) of VPM ([2]; inhibitor 5 mg/kg i.v.): 11.16±1.44 (1.1) ml·ml^−1
- DV of VPM (2T4K model) ([2]; inhibitor 5 mg/kg i.v.): 11.40±1.45 (3.8) ml·ml^−1
- K1 of VPM (2T4K model) ([2]; inhibitor 5 mg/kg i.v.): 0.93±0.26 (17.0) ml·ml^−1·min^−1
- k2 of VPM (2T4K model) ([2]; inhibitor 5 mg/kg i.v.): 0.22±0.06 (58.8) min^−1
- k3 of VPM (2T4K model) ([2]; inhibitor 5 mg/kg i.v.): 0.28±0.05 (79.7) min^−1
- k4 of VPM (2T4K model) ([2]; inhibitor 5 mg/kg i.v.): 0.16±0.01 (35.4) min^−1
- DV (Logan) of VPM ([2]; inhibitor 7.5 mg/kg i.v.): 14.20±0.13 (0.4) ml·ml^−1
- DV of VPM (2T4K model) ([2]; inhibitor 7.5 mg/kg i.v.): 14.55±0.06 (2.6) ml·ml^−1
- K1 of VPM (2T4K model) ([2]; inhibitor 7.5 mg/kg i.v.): 0.98±0.08 (6.4) ml·ml^−1·min^−1
- k2 of VPM (2T4K model) ([2]; inhibitor 7.5 mg/kg i.v.): 0.15±0.02 (43.5) min^−1
- k3 of VPM (2T4K model) ([2]; inhibitor 7.5 mg/kg i.v.): 0.25±0.07 (55.4) min^−1
- k4 of VPM (2T4K model) ([2]; inhibitor 7.5 mg/kg i.v.): 0.22±0.04 (30.3) min^−1
- EC50 at 180 min [3]: 0.115 ± 0.0222 µg/mL
- ED50 at 120 min ([3]; Sprague-Dawley, iv): 1.2 ± 0.1 mg/kg
- concentration at 180 min ([4]; brain): 5190 ± 1420 ng/mL
- Kp at 180 min ([4]; brain, iv): 16.8 ± 5.8
- concentration at 180 min ([4]; plasma): 316 ± 61 ng/mL
- Time of peak VPM brain uptake (maximum effect) after inhibitor injection [5]: 30 ± 5 min and 30 min
